ChEMBL document CHEMBL5370550, “Structure-guided optimization of adenosine mimetics as selective and potent inhibitors of coronavirus nsp14 N7-methyltransferases” (Eur J Med Chem, 2023)
Calls of active or inactive are those of the source. The calls are words filed in the database; no cut-off is given here.

Key:
[1] = molecular target: Replicase polyprotein 1ab (Severe acute respiratory syndrome-related coronavirus) (UniProt P0C6X7); conditions: dose 5.0 µM, time 30.0 min
[2] = molecular target: T1, mRNA cap guanine-N(7) methyltransferase (Homo sapiens, UniProt O43148); conditions: dose 5.0 µM, time 30.0 min
[3] = molecular target: Nonstructural protein 5 (Dengue virus) (UniProt V5TFZ2); conditions: dengue virus type 3; dose 5.0 µM, time 30.0 min
[4] = molecular target: Replicase polyprotein 1ab (Severe acute respiratory syndrome coronavirus 2) (UniProt P0DTD1); conditions: dose 5.0 µM, time 30.0 min, values are per cent of control
[5] = molecular target: Replicase polyprotein 1ab (Severe acute respiratory syndrome coronavirus 2, UniProt P0DTD1)
[6] = Cytotoxicity against Green monkey VeroE6/TMPRSS2 cells assessed as reduction in cell viability upto 10 uM by CellTiter Blue assay; type: toxicity, cell-based; conditions: chlorocebus sabaeus, veroe6/tmprss2, 10 µM
SARS-CoV-2 = assay: Antiviral activity against SARS-CoV-2 B.1 infected in Green monkey VeroE6/TMPRSS2 cells assessed as viral replication inhibition at 10 uM incubated for 2 days by qRT-PCR analysis relative to control; type: functional, Severe acute respiratory syndrome coronavirus 2; set-up: scale not given: the % may be the effect or the level left
[7] = molecular target: Replicase polyprotein 1ab (Severe acute respiratory syndrome-related coronavirus, UniProt P0C6X7)
[8] = system: Severe acute respiratory syndrome coronavirus 2; conditions: time 30.0 min
[9] = molecular target: T1, mRNA cap guanine-N(7) methyltransferase
Nonstructural protein 5 = Nonstructural protein 5 (Dengue virus, UniProt V5TFZ2); set-up: species or system dengue virus type 3
[10] = Severe acute respiratory syndrome coronavirus 2, time 2.0 day

T1 sequence (O43148 whole entry): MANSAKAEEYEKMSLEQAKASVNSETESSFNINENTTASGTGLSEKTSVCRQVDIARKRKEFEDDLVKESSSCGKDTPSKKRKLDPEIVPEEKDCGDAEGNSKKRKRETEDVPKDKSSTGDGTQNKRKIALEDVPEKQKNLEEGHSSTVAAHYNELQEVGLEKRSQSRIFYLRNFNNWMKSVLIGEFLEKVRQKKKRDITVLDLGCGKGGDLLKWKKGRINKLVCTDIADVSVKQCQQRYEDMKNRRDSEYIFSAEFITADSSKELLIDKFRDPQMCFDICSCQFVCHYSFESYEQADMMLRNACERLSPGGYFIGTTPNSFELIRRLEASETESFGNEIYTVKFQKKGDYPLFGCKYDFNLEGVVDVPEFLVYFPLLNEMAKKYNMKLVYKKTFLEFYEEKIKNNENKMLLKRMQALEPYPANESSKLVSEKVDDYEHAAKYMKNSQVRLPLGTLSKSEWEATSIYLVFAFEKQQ

Compound | inhibition [1] | inhibition [2] | inhibition [3] | residual activity [4] | IC50 [5] | Activity [6] | Activity (SARS-CoV-2; time 2 day) | Activity (SARS-CoV-2; [10]) | IC50 [7] | inhibition [8] | IC50 [9] | IC50 (Nonstructural protein 5)
COc1ccc(S(=O)(=O)NC[C@H]2O[C@@H](n3cnc4c(=O)[nH]cnc43)[C@H](O)[C@@H]2O)cc1[N+](=O)[O-] | 91.7% | inactive | inactive | 93.6% | – | – | – | – | – | – | – | –
CNc1ncnc2c1ncn2[C@@H]1O[C@H](CNS(=O)(=O)c2ccc(C)c([N+](=O)[O-])c2)[C@@H](O)[C@H]1O | 66.4% | 66.4% | 76.6% | 38.7% | 2850 nM | – | – | – | – | – | – | –
COc1ccc(S(=O)(=O)N(C)C[C@H]2O[C@@H](n3cc(C#Cc4cnc5ccccc5c4)c4c(N)ncnc43)[C@H](O)[C@@H]2O)cc1[N+](=O)[O-] | 0.8% | 49.9% | inactive | 0% | 1.3 nM | Non-Toxic | 50% | – | – | – | – | –
CCN(C[C@H]1O[C@@H](n2cnc3c(=O)[nH]cnc32)[C@H](O)[C@@H]1O)S(=O)(=O)c1ccc(OC)c([N+](=O)[O-])c1 | 69.8% | inactive | 86.4% | 56.4% | – | – | – | – | – | – | – | –
Cc1ccc(S(=O)(=O)N(C)C[C@H]2O[C@@H](n3cc(C#Cc4ccccc4)c4c(N)ncnc43)[C@H](O)[C@@H]2O)cc1[N+](=O)[O-] | 1% | inactive | 93.3% | 1% | 9.5 nM | Non-Toxic | – | inactive | – | – | – | –
Cc1ccc(S(=O)(=O)N(C)C[C@H]2O[C@@H](n3cc(C#Cc4ccccc4)c4c(N)ncnc43)[C@H](O)[C@@H]2O)cc1Cl | 2.4% | inactive | 94.8% | 7% | 25.6 nM | Non-Toxic | – | inactive | – | – | – | –
Cc1cc(S(=O)(=O)NC[C@H]2O[C@@H](n3cnc4c(=O)[nH]cnc43)[C@H](O)[C@@H]2O)ccc1Cl | 71.8% | inactive | inactive | 87.6% | – | – | – | – | – | – | – | –
COc1ccc(S(=O)(=O)N(C)C[C@H]2O[C@@H](n3cc(C#Cc4ccccc4)c4c(N)ncnc43)[C@H](O)[C@@H]2O)cc1C#N | 1% | inactive | – | 2.4% | 1.2 nM | Non-Toxic | – | inactive | 0.8 nM | inactive | 56.5 µM | Not Active
CCN(C[C@H]1O[C@@H](n2cnc3c(NC)ncnc32)[C@H](O)[C@@H]1O)S(=O)(=O)c1ccc(OC)c(C#N)c1 | 4.3% | 55.9% | – | 4.2% | 62 nM | – | – | – | 51.7 nM | – | 16.1 µM | Not Active
CNc1ncnc2c1ncn2[C@@H]1O[C@H](CNS(=O)(=O)c2ccc(C)c(Cl)c2)[C@@H](O)[C@H]1O | 53.5% | 92% | inactive | 45.4% | 2180 nM | – | – | – | – | – | – | –
CCN(C[C@H]1O[C@@H](n2cnc3c(NC)ncnc32)[C@H](O)[C@@H]1O)S(=O)(=O)c1ccc(C)c(Cl)c1 | 10.9% | 78% | inactive | 8.3% | 130 nM | – | – | – | – | – | – | –
CCN(C[C@H]1O[C@@H](n2cnc3c(NC)ncnc32)[C@H](O)[C@@H]1O)S(=O)(=O)c1ccc(C)c([N+](=O)[O-])c1 | 20.1% | inactive | 97.1% | 10.9% | 187 nM | – | – | – | – | – | – | –
Cc1ccc(S(=O)(=O)N(C)C[C@H]2O[C@@H](n3cc(C#Cc4cnc5ccccc5c4)c4c(N)ncnc43)[C@H](O)[C@@H]2O)cc1Cl | 1.5% | 90.7% | 97.7% | 3.2% | 2.07 nM | Non-Toxic | 50% | – | – | – | – | –
CCN(C[C@H]1O[C@@H](n2cnc3c(N)ncnc32)[C@H](O)[C@@H]1O)S(=O)(=O)c1ccc(OC)c(C#N)c1 | 4.2% | 69.5% | inactive | – | – | – | – | – | – | – | – | –
CCN(C[C@H]1O[C@@H](n2cnc3c(NC)ncnc32)[C@H](O)[C@@H]1O)S(=O)(=O)c1ccc(Br)c([N+](=O)[O-])c1 | 29.5% | inactive | 98% | 15.2% | 383 nM | – | – | – | – | – | – | –
CNc1ncnc2c1ncn2[C@@H]1O[C@H](CNS(=O)(=O)c2ccc(OC)c(C#N)c2)[C@@H](O)[C@H]1O | 45.1% | inactive | – | 25.4% | 468 nM | – | – | – | 3990 nM | inactive | 56.2 µM | Not Active
COc1ccc(S(=O)(=O)NC[C@H]2O[C@@H](n3cnc4c(=O)[nH]cnc43)[C@H](O)[C@@H]2O)cc1C#N | 98.4% | inactive | inactive | 86% | – | – | – | – | – | – | – | –
CCN(C[C@H]1O[C@@H](n2cnc3c(=O)[nH]cnc32)[C@H](O)[C@@H]1O)S(=O)(=O)c1ccc(OC)c(C#N)c1 | 48.1% | 88.9% | 89.8% | 30.7% | 4000 nM | – | – | – | – | – | – | –
Cc1ccc(S(=O)(=O)N(C)C[C@H]2O[C@@H](n3cc(C#Cc4cnc5ccccc5c4)c4c(N)ncnc43)[C@H](O)[C@@H]2O)cc1[N+](=O)[O-] | 1.9% | 86.7% | 96% | 4.2% | 2.1 nM | Non-Toxic | 50% | – | – | – | – | –
COc1ccc(S(=O)(=O)N(C)C[C@H]2O[C@@H](n3cc(C#Cc4ccccc4)c4c(N)ncnc43)[C@H](O)[C@@H]2O)cc1[N+](=O)[O-] | 0.5% | inactive | 91.6% | 0% | 2.8 nM | Non-Toxic | – | inactive | – | – | – | –
CNc1ncnc2c1ncn2[C@@H]1O[C@H](CNS(=O)(=O)c2ccc(OC)c([N+](=O)[O-])c2)[C@@H](O)[C@H]1O | 41.9% | inactive | inactive | 31.5% | 573 nM | – | – | – | – | – | – | –
CN(C[C@H]1O[C@@H](n2cc(C#Cc3ccccc3)c3c(N)ncnc32)[C@H](O)[C@@H]1O)S(=O)(=O)c1ccc(Br)c([N+](=O)[O-])c1 | 3.3% | 95.9% | 96.9% | 5% | 17.3 nM | Non-Toxic | – | inactive | – | – | – | –
CCN(C[C@H]1O[C@@H](n2cnc3c(=O)[nH]cnc32)[C@H](O)[C@@H]1O)S(=O)(=O)c1ccc(Cl)c(C)c1 | 91% | inactive | inactive | 75.5% | – | – | – | – | – | – | – | –
COc1ccc(S(=O)(=O)N(C)C[C@H]2O[C@@H](n3cc(C#Cc4cnc5ccccc5c4)c4c(N)ncnc43)[C@H](O)[C@@H]2O)cc1C#N | 1.4% | 53% | – | 0% | 0.72 nM | Non-Toxic | 50% | – | 0.141 nM | inactive | 165 µM | Not Active
CCN(C[C@H]1O[C@@H](n2cnc3c(NC)ncnc32)[C@H](O)[C@@H]1O)S(=O)(=O)c1ccc(OC)c([N+](=O)[O-])c1 | 16.4% | 73.3% | 90% | 10.3% | 274 nM | – | – | – | – | – | – | –
CNc1ncnc2c1ncn2[C@@H]1O[C@H](CNS(=O)(=O)c2ccc(Br)c([N+](=O)[O-])c2)[C@@H](O)[C@H]1O | 54% | 57% | 78.1% | 33.8% | 3410 nM | – | – | – | – | – | – | –
CN(C[C@H]1O[C@@H](n2cc(C#Cc3cnc4ccccc4c3)c3c(N)ncnc32)[C@H](O)[C@@H]1O)S(=O)(=O)c1ccc(Br)c([N+](=O)[O-])c1 | 5.5% | 52.3% | inactive | 5.4% | 3.5 nM | Non-Toxic | 50% | – | – | – | – | –
